From paper PMC8025945 (Journal of medicinal chemistry, 2017) come the findings set out here.

Like-named read-outs stand apart in the source and are kept apart here. A value given as a limit tells only on which side of the number the result lay.

The test system of data set [1] is HCT-116. Particulars: human, HCT-116 colon tumor cells.
The subject of data set [2] is HOP-62. Particulars: human, HOP-62 lung tumor cells.
The subject of data set [3] is OVCAR-3. The settings on record: human, OVCAR-3 ovarian tumor cells.
Data set [4] deals with NCI-60 human tumor cell lines. The settings on record: NCI-60 human tumor cell lines (all cell lines tested).
In data set [5] the test system is DU-145. The settings on record: human, DU-145 prostate tumor cells.
The target of a further data set is T1, recombinant Top1 (Homo sapiens, UniProt P11387).
T1 sequence (P11387 1-765): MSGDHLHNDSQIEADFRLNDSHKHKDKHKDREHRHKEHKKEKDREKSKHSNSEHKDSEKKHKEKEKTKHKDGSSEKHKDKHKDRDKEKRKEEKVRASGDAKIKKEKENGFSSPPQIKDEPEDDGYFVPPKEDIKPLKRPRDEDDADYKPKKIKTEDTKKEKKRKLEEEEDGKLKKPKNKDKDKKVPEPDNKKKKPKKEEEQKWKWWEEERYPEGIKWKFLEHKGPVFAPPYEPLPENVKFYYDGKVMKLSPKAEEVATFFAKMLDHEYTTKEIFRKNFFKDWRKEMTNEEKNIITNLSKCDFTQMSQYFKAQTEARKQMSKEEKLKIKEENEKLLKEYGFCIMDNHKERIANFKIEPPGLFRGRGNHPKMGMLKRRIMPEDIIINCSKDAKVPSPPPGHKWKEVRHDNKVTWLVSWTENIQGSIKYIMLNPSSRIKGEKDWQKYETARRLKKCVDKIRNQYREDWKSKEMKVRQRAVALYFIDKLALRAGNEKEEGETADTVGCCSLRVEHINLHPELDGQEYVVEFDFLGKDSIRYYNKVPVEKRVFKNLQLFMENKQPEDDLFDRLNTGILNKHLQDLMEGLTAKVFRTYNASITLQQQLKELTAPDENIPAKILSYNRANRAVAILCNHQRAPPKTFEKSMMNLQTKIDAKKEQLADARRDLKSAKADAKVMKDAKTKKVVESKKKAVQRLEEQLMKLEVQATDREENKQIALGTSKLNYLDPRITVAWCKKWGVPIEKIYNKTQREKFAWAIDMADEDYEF
Kind of data set: Top1-mediated DNA cleavage assay. The data set is classed as biochemical. The settings on record: semiquantitative scale relative to 1 μM MJ-III-65 (6) and 1 μM camptothecin (1).

Data set [6] deals with HCT-116. Kind of data set: NCI-60 human tumor cell line screen, colon HCT-116. Particulars: read-out: cytotoxicity (GI50) colon HCT-116; 50% growth inhibition.
The test system of a further data set is SN12C. Description: NCI-60 human tumor cell line screen, renal SN12C. Particulars: read-out: cytotoxicity (GI50) renal SN12C; 50% growth inhibition.
For data set [7], the system named is NCI-60 human tumor cell lines. Kind of data set: NCI-60 mean graph midpoint. The settings on record: read-out: MGM GI50.
The next data set concerns UACC-62. Description: NCI-60 human tumor cell line screen, melanoma UACC-62. The settings on record: read-out: cytotoxicity (GI50) melanoma UACC-62; 50% growth inhibition.
Data set [8] relates to DU-145. Kind of data set: NCI-60 human tumor cell line screen, prostate DU-145. Particulars: read-out: cytotoxicity (GI50) prostate DU-145; 50% growth inhibition.
The test system of data set [9] is HOP-62. Kind of data set: NCI-60 human tumor cell line screen, lung HOP-62. The settings on record: read-out: cytotoxicity (GI50) lung HOP-62; 50% growth inhibition.
Data set [10] concerns OVCAR-3. Kind of data set: NCI-60 human tumor cell line screen, ovarian OVCAR-3. Particulars: read-out: cytotoxicity (GI50) ovarian OVCAR-3; 50% growth inhibition.
The test system of a further data set is SF-539. Description: NCI-60 human tumor cell line screen, CNS SF-539. Particulars: read-out: cytotoxicity (GI50) CNS SF-539; 50% growth inhibition.
A further data set has as its system MCF-7. Kind of data set: NCI-60 human tumor cell line screen, breast MCF-7. Particulars: read-out: cytotoxicity (GI50) breast MCF-7; 50% growth inhibition.

In the case of `O=C1c2ccccc2-c2c1c1ccc(Cl)cc1c(=O)n2CCCn1ccnc1` [compound 8], the concentration for 50% growth inhibition (GI50) – broadly, the concentration giving 50% growth inhibition – with HCT-116 [1] was 107 nM; in the data set with HOP-62 [2] it was 186 nM; with OVCAR-3 [3], 407 nM; in data set [4] it was 229 nM; in the data set with DU-145 [5] it was 309 nM. Moreover, the “enzyme inhibitory activity Top1 (compound-induced DNA cleavage score)” value on recombinant Top1 is on record as “+++”.
Take `COc1cnc2c(c1)C(=O)c1c-2n(CCCn2ccnc2)c(=O)c2cc([N+](=O)[O-])ccc12` [compound 9]: the GI50 was less than 10 nM with HCT-116 [6]; less than 10 nM in the data set with SN12C; 21 nM in [7]; less than 10 nM in the data set with UACC-62; less than 10 nM in the data set with DU-145 [8]; less than 10 nM in the data set with HOP-62 [9]. In addition, the concentration for 50% growth inhibition (GI50) in the data set on OVCAR-3 [10] is 25 nM; in the data set with SF-539, less than 10 nM; with MCF-7, less than 10 nM. For the same molecule, the zebrafish survival percentage is given as 0 ± 0 % in the data set on zebrafish embryos (0.1 μM in medium, 48 h after fertilization); 0 ± 0 % with zebrafish embryos (0.1 μM in medium, 72 h after fertilization); 0 ± 0 % in the data set with zebrafish embryos (0.1 μM in medium, 96 h after fertilization); 0 ± 0 % in the data set on zebrafish embryos (0.1 μM in medium, 120 h after fertilization); 0 ± 0 % with zebrafish embryos (1 μM in medium, 24 h after fertilization); 0 ± 0 % in the data set on zebrafish embryos (1 μM in medium, 48 h after fertilization). Besides, the zebrafish survival percentage in the data set on zebrafish embryos (1 μM in medium, 72 h after fertilization) was found to be 0 ± 0 %; with zebrafish embryos (1 μM in medium, 96 h after fertilization) it was 0 ± 0 %; in the data set on zebrafish embryos (1 μM in medium, 120 h after fertilization), 0 ± 0 %; in the data set with zebrafish embryos (10 μM in medium, 24 h after fertilization) it was 0 ± 0 %; in the data set with zebrafish embryos (10 μM in medium, 48 h after fertilization), 0 ± 0 %; in the data set on zebrafish embryos (10 μM in medium, 72 h after fertilization), 0 ± 0 %. The zebrafish survival percentage in the data set on zebrafish embryos (10 μM in medium, 96 h after fertilization) amounted to 0 ± 0 %; in the data set on zebrafish embryos (10 μM in medium, 120 h after fertilization), 0 ± 0 %. Also, the “lethality in zebrafish (comparison between compounds)” value in the data set with zebrafish embryos (statistical comparison of 9, 16b and 17b) is reported as “significantly more lethal”.
